In PMC12040169 (PLOS Biology, 2025) one finds viability data, which are given here for 77 compounds.

One data set can be described thus: in vitro. The following applies: human, hela cells, % viability.
For orientation: viability means a read-out of living cells in per cent, often relative to untreated cells. As for `COC(=O)c1c(NC(=O)CCCC(=O)O)sc(C)c1C` [CBK265382], the viability at 28.5 h, 10 µM was found to be 98.2%.
As for `CCC(C(=O)Nc1sc2c(c1C(N)=O)CCCCCC2)c1ccccc1` (centres unmarked) [CBK265383], the viability at 28.5 h, 10 µM came out at 85.8%.
Take `O=C(CC(Nc1ccccc1Cl)C(=O)O)c1ccccc1` (centres unmarked) [CBK265386]: the viability at 28.5 h, 10 µM turned out to be 81.1%.
For `O=c1cc2oc3cc(O)c(O)cc3c(-c3cccc(OCc4ccc([N+](=O)[O-])cc4)c3)c-2cc1O` [CBK265388], the viability at 28.5 h, 10 µM came out at 91%.
For `COC(=O)c1sc(NC(=O)C2CCCCC2C(=O)O)c(C(=O)OC)c1C` (centres unmarked) [CBK265389], the viability at 28.5 h, 10 µM amounted to 106%.
Still for that read-out and setting: to `Cc1cc(Cl)ccc1OCCCC(=O)Nc1sc2c(c1C(N)=O)CCCCCC2` [CBK265390] belongs 94.8%; to `Cc1ccccc1OCCn1c(=N)n(CC(C)C)c2ccccc21` [CBK265392B], 94.9%.
As to `COC(=O)c1c(NC(=O)CCCC(=O)O)sc2c1CCCCC2` [CBK265393], the viability at 28.5 h, 10 µM was determined as 85.4%.
Same read-out and setting: in the case of `CCCc1cc(C(=O)OC)c(NC(=O)C2CC=CCC2C(=O)O)s1` (centres unmarked) [CBK265397] it was 117%.
Regarding `Cc1nn(C)cc1CN(C)S(=O)(=O)c1cccc([N+](=O)[O-])c1` [CBK265399], the viability at 28.5 h, 10 µM came to 79.9%.
Still for that read-out and setting: in the case of `CCOc1ccccc1N1C(=O)CC(Sc2nc(-c3ccccc3)c3cc(Cl)ccc3n2)C1=O` (centres unmarked) [CBK265405] it was 116%; in that of `COc1ccc(N2C(=O)c3ccccc3NC2c2cccc(OCC(=O)Nc3ccccc3)c2)cc1` (centres unmarked) [CBK265406], 108%.
As to `CCOC(=O)CN1C(=O)S/C(=C/c2cc(C)n(-c3ccc(S(N)(=O)=O)cc3)c2C)C1=O` [CBK265410], the viability at 28.5 h, 10 µM was 94%.
For the compound `CCOC(=O)c1cc(C)sc1NC(=O)CCC(=O)O` [CBK265412], the viability at 28.5 h, 10 µM worked out at 108%.
Take `COc1ccc(N2CCN(c3nc(NCCO)nc(N4CCOCC4)n3)CC2)cc1` [CBK265413]: the viability at 28.5 h, 10 µM amounted to 99.3%.
Turning to `O=C(Nc1nc2nccc(-c3ccccc3)n2n1)c1cccc([N+](=O)[O-])c1` [CBK265414], the viability at 28.5 h, 10 µM came out at 87.6%.
As to `Cc1cc(N2C(=O)c3ccc(C(=O)O)cc3C2=O)ccc1NC(=O)c1cccs1` [CBK265415], the viability at 28.5 h, 10 µM stood at 92.8%.
In the case of `CCOC(=O)c1cc(C(C)C)sc1NC(=O)C1C2C=CC(C2)C1C(=O)O` (centres unmarked) [CBK265417], the viability at 28.5 h, 10 µM was found to be 95.4%.
As for `COC(=O)c1ccc(C(=O)OC)c(NC(=O)C2CCCCC2C(=O)O)c1` (centres unmarked) [CBK265422], the viability at 28.5 h, 10 µM worked out at 88%.
`Cc1ccc(NC(=O)/C=C/c2ccc3c(c2)OCO3)c(NC(=O)/C=C/c2ccc3c(c2)OCO3)c1` [CBK265423]: the viability at 28.5 h, 10 µM is 114%.
Same read-out and setting: to `CC(=O)Nc1cccc(OCC(=O)Nc2ccc(C)c(C)c2)c1` [CBK265429] belongs 95.9%.
With `CCc1c(C)sc(NC(=O)C2C3C=CC(C3)C2C(=O)O)c1C(N)=O` (centres unmarked) [CBK265433], the viability at 28.5 h, 10 µM was found to be 97.9%.
On to `COC(=O)c1sccc1NC(=O)c1ccncc1` [CBK265438], for which the viability at 28.5 h, 10 µM was determined as 85.4%.
For the compound `O=C(COc1ccc2ccccc2c1)NCCN1CCOCC1` [CBK265444], the viability at 28.5 h, 10 µM amounted to 107%.
As for `O=C(/C=C/c1ccc2c(c1)OCO2)Nc1ccc(S(=O)(=O)Nc2cnc3ccccc3n2)cc1` [CBK265445], the viability at 28.5 h, 10 µM was 86.9%.
As for `O=C(/C=C/c1c(F)cccc1Cl)Nc1nnn[nH]1` [CBK265447], the viability at 28.5 h, 10 µM was found to be 102%.
Still for that read-out and setting: to `Cc1oc(CC(C)C)c(CN2CCCCC2)c1C(=O)O` [CBK265448C] belongs 113%.
In the case of `CC(Oc1cccc(Cl)c1)C(=O)Nc1ncccn1` (centres unmarked) [CBK265450], the viability at 28.5 h, 10 µM came to 90.2%.
Still for that read-out and setting: in the case of `CC1=C(C)CC(C(=O)NC(C)CCc2ccccc2)C(C(=O)O)C1` (centres unmarked) [CBK265452] it was 99.9%.
Consider `O=C(O)C1C2C=CC(C2)C1C(=O)NCc1ccco1` (centres unmarked) [CBK265453], for which the viability at 28.5 h, 10 µM was 92.7%.
Turning to `O=C(Nc1nc2ccccc2[nH]1)C1c2ccccc2Oc2ccccc21` [CBK265454], the viability at 28.5 h, 10 µM turned out to be 98.9%.
The same measure, in the same setting: in the case of `O=C(CSc1nnc2sc3ccccc3n12)N1c2ccccc2Sc2ccccc21` [CBK265457] it was 89%; in that of `Cc1ccc(-c2cc(C(=O)O)[nH]n2)cc1` [CBK265462], 101%; in that of `Cc1onc(-c2ccccc2Cl)c1C(=O)Nc1ccc(S(=O)(=O)N2CCC(C)CC2)cc1` [CBK265463], 107%.
In the case of `COc1cc(C)c(S(=O)(=O)n2c(C)nc3ccccc32)cc1C` [CBK265464], the viability at 28.5 h, 10 µM was 94%.
For the compound `O=C(/C=C/c1ccc(Cl)cc1)Nc1nnn[nH]1` [CBK265468], the viability at 28.5 h, 10 µM worked out at 81.8%.
Consider `O=S(=O)(NCc1ccc(CNS(=O)(=O)c2ccccc2)cc1)c1ccccc1` [CBK265471], for which the viability at 28.5 h, 10 µM is 113%.
Consider `c1ccc(CN2CCN(CCN3CCn4c3nc3ccccc34)CC2)cc1` [CBK265472B], for which the viability at 28.5 h, 10 µM is 97.5%.
As for `O=C(O)C1C2C=CC(O2)C1C(=O)Nc1ccc2c(c1)OCO2` (centres unmarked) [CBK265475], the viability at 28.5 h, 10 µM was determined as 88.6%.
Still for that read-out and setting: to `O=C(O)C1CCCCC1C(=O)N1CCN(C(c2ccccc2)c2ccccc2)CC1` (centres unmarked) [CBK265480] belongs 90.7%; to `S=C(Nc1ccccc1)Nc1nc2ccccc2n1CCOc1ccccc1` [CBK265487], 113%; to `CC(=O)Nc1ccc(S(=O)(=O)NCCCc2ccccc2)cc1` [CBK265488], 89.8%.
With `O=C(COC(=O)c1ccccc1NC(=O)c1ccccc1)c1ccc2ccccc2c1` [CBK265491], the viability at 28.5 h, 10 µM turned out to be 94.9%.
Still for that read-out and setting: to `Cc1ccc(OCCOCCN(C)C)c(Cl)c1` [CBK265493G] belongs 111%; to `Cc1nc(-c2ccc(S(=O)(=O)N3CCC(Cc4ccccc4)CC3)cc2)cs1` [CBK265494], 108%.
`Cc1ccc(C)c(C(=O)C2=C(O)C(=O)N(CCN(C)C)C2c2cccc(Cl)c2)c1` (centres unmarked) [CBK265495]: the viability at 28.5 h, 10 µM was 91.4%.
Turning to `O=C1NC(=S)S/C1=C\c1cn(-c2ccccc2)nc1-c1ccc(OCc2ccccc2)cc1` [CBK265496], the viability at 28.5 h, 10 µM stood at 79.4%.
For `O=C(/C=C/c1ccc(Cl)cc1Cl)Nc1sc2c(c1C(=O)NCc1cccnc1)CCCC2` [CBK265497], the viability at 28.5 h, 10 µM stood at 99.3%.
With `O=C(Nc1sc2c(c1C(=O)NCc1cccnc1)CCCC2)c1ccc(Cl)cc1` [CBK265498], the viability at 28.5 h, 10 µM was 88.2%.
Regarding `Cc1cccc(C)c1OCC(=O)Nc1cccc(Oc2ccc3c(c2)C(=O)N(c2ccccc2)C3=O)c1` [CBK265499], the viability at 28.5 h, 10 µM came out at 100%.
On to `O=C(O)c1cc2oc3ccccc3c3ccccc3oc2cc1C(=O)Nc1cccc([N+](=O)[O-])c1` [CBK265500], for which the viability at 28.5 h, 10 µM was found to be 99.1%.
On the same count and under the same terms, in the case of `O=S(=O)(c1ccc(-c2csc(-c3cccnc3)n2)cc1)N1CCCCCC1` [CBK265502] it was 106%; in that of `Cc1ccc(C)c(C(=O)C2=C(O)C(=O)N(CCCN3CCOCC3)C2c2cccc([N+](=O)[O-])c2)c1` (centres unmarked) [CBK265503], 86.2%.
In the case of `CC(Oc1ccc(F)cc1)C(=O)Nc1ccc(S(N)(=O)=O)cc1` (centres unmarked) [CBK265506], the viability at 28.5 h, 10 µM was 92.3%.
Still for that read-out and setting: to `Cc1cccc(OCC(=O)NCCCc2ccccc2)c1C` [CBK265507] belongs 99.9%; to `CCOc1cc(/C=C2\SC(=S)N(Cc3ccccc3)C2=O)cc(Cl)c1OC(=O)c1ccco1` [CBK265509], 106%; to `CCOc1cc(/C=C2\SC(=N)NC2=O)ccc1OC(=O)c1cccs1` [CBK265510], 107%.
On to `O=[N+]([O-])c1ccccc1OCCNCc1ccccc1` [CBK265511G], for which the viability at 28.5 h, 10 µM was 101%.
With `Cc1ccc(C(=O)C(OC(=O)COc2ccccc2C)c2ccccc2)cc1C` (centres unmarked) [CBK265512], the viability at 28.5 h, 10 µM came out at 85.3%.
On the same count and under the same terms, in the case of `O=C(O)c1ccc(NC(=O)c2ccccc2NC(=O)c2cccc(Br)c2)cc1` [CBK265517] it was 102%; in that of `O=C(Nc1ccc(C(=O)OCC(=O)c2cccc3ccccc23)cc1)c1ccccc1` [CBK265518], 115%.
In the case of `Cc1ccc(C(=O)C(OC(=O)CN2C(=O)c3cccc([N+](=O)[O-])c3C2=O)c2ccccc2)cc1C` (centres unmarked) [CBK265519], the viability at 28.5 h, 10 µM was found to be 109%.
On the same count and under the same terms, to `O=C(Cc1ccccc1[N+](=O)[O-])NCCCN1CCOCC1` [CBK265520] belongs 92%.
On the same count and under the same terms, in the case of `COc1ccccc1Cc1noc(COc2cccc(C)c2C)n1` [CBK265521] it was 99.9%; in that of `O=C(O)c1cccc(NC(=O)c2ccc3c(c2)C(=O)N(Cc2cccnc2)C3=O)c1` [CBK265523], 88.5%.
On to `O=C(COC(=O)c1cc(O)nc2ccccc12)c1ccccc1Cl` [CBK265524], for which the viability at 28.5 h, 10 µM is 95.2%.
In the case of `O=C(OCC(=O)c1cccc2ccccc12)c1cc2ccccc2cc1O` [CBK265526], the viability at 28.5 h, 10 µM turned out to be 102%.
Regarding `O=C(NCN1CCN(c2ccccc2F)CC1)c1cccnc1` [CBK265530], the viability at 28.5 h, 10 µM was 90%.
Turning to `COc1ccccc1N1C(=O)CC(N2CCC(C(N)=O)(N3CCCCC3)CC2)C1=O` (centres unmarked) [CBK265533], the viability at 28.5 h, 10 µM amounted to 84.3%.
Still for that read-out and setting: to `C(=C\c1ccccc1)/Cn1c(COc2ccccc2)nc2ccccc21` [CBK265535] belongs 91.6%.
Turning to `O=C1N(CN2CCN(C(c3ccccc3)c3ccccc3)CC2)c2ccccc2C12OCCO2` [CBK265537], the viability at 28.5 h, 10 µM is 87.1%.
With `Nc1nc(CSCCO)nc(Nc2ccc(F)cc2)n1` [CBK265542], the viability at 28.5 h, 10 µM is 98.3%.
Still for that read-out and setting: in the case of `Cc1ccc(C(=O)CCC(=O)CCC(=O)O)cc1` [CBK265546] it was 95.6%.

Staying with this data set, now noted: human, hela cells, % viability, bulk resorufin, single well.
For `CCOc1cc(C=C2C(=O)NC(=S)NC2=O)cc(Br)c1OCC(=O)O` [CBK265411], the viability at 28.5 h, 10 µM came to 98.4%.
Take `O=C(COc1ccc(/C=C2\C(=O)NC(=O)N(c3ccc(O)cc3)C2=O)cc1Cl)Nc1ccccc1` [CBK265425]: the viability at 28.5 h, 10 µM stood at 84.4%.
For `O=C(O)COc1ccc(/C=C2\C(=O)NC(=O)N(c3ccc(OCc4ccccc4)cc3)C2=O)cc1` [CBK265449], the viability at 28.5 h, 10 µM stood at 83.6%.
For `COC(=O)c1ccc(N2C(=O)NC(=O)/C(=C\c3ccccc3OCC(=O)O)C2=O)cc1` [CBK265459], the viability at 28.5 h, 10 µM turned out to be 84.7%.
